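Dose response: 5 concentrations. Exposure: 48 h. Format: 96-well plates. Endpoint: linear interpolation; highest concentration if not reached. GI50 = concentration required for 50% inhibition of growth. At the TGI there is no net growth.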

Test systems include HCT-116 colon; SF-295 CNS; HL-60(TB) leukemia; PC-3 prostate; UO-31 renal; COLO 205 colon; HOP-92 NSCLC; SW-620 colon; MDA-MB-231 breast; K-562 leukemia.
What all share (assay): inhibition of tumour cell growth, NCI panel, 48 h

On to `Cn1c(=O)c(Cc2ccccc2F)cc2cnc(NC3CCOCC3)nc21`, for which the GI50 in the test on HCT-116 colon is over 25 µM; in the test with SF-295 CNS, over 25 µM; with HL-60(TB) leukemia, over 25 µM; in the test with PC-3 prostate it was over 25 µM; in the test on UO-31 renal, over 20.4 µM; in the test with COLO 205 colon it was over 25 µM. The GI50 is 4.91 µM in the test with HOP-92 NSCLC, over 25 µM with SW-620 colon, over 25 µM in the test with MDA-MB-231 breast and over 25 µM in the test on K-562 leukemia. Also, the TGI in the test on HCT-116 colon, in the test on SF-295 CNS, with HL-60(TB) leukemia, with PC-3 prostate, in the test with UO-31 renal and in the test with COLO 205 colon was over 25 µM in each case. Moreover, the TGI with HOP-92 NSCLC, in the test with SW-620 colon, in the test with MDA-MB-231 breast and in the test with K-562 leukemia was over 25 µM each time.
Turning to `CN(CCC#N)c1ccc(/C=C(\C#N)c2ccc(Br)cc2)cc1`, the GI50 in the test on HL-60(TB) leukemia is 4.43 µM; in the test on PC-3 prostate, over 100 µM; in the test with UO-31 renal, over 100 µM; in the test with HOP-92 NSCLC, 2.52 µM; with SW-620 colon, 3.87 µM; in the test with MDA-MB-231 breast, 4.72 µM. Moreover, the GI50 with K-562 leukemia is 3.5 µM. Also, the TGI in the test on HL-60(TB) leukemia, with PC-3 prostate, in the test on UO-31 renal, with HOP-92 NSCLC, in the test on SW-620 colon and in the test with MDA-MB-231 breast was over 100 µM throughout. In the test on K-562 leukemia, this molecule gave a TGI of over 100 µM.
Turning to `O=C1CSC(c2ccc(Cl)cc2Cl)N1c1ccc(F)cc1` (stereo unspecified), the GI50 is 16.7 µM in the test with HCT-116 colon; 18.3 µM in the test with SF-295 CNS; 21.2 µM in the test on HL-60(TB) leukemia; 18.5 µM with PC-3 prostate; 16.6 µM in the test with UO-31 renal; 17.6 µM with HOP-92 NSCLC. The GI50 in the test with SW-620 colon is 21.7 µM; in the test on MDA-MB-231 breast, 16.1 µM; in the test on K-562 leukemia it was 19.8 µM. Moreover, the TGI in the test with HCT-116 colon turned out to be 30.3 µM; in the test with SF-295 CNS, 37.2 µM; in the test on HL-60(TB) leukemia, 45.6 µM; in the test with PC-3 prostate it was 35.5 µM; in the test on UO-31 renal, 31.5 µM; with HOP-92 NSCLC, 32.8 µM. Moreover, the TGI with SW-620 colon is 37.5 µM; in the test on MDA-MB-231 breast it was 30.4 µM; in the test with K-562 leukemia, 45.7 µM.
For the molecule `COc1cccc2c(=O)c3c(sc12)c(N1CCNCC1)nc1ccccc13`, the GI50 was 1.55 µM in the test with HCT-116 colon; 1.82 µM in the test on SF-295 CNS; 1.62 µM with PC-3 prostate; 1.07 µM in the test on UO-31 renal; 2.07 µM in the test on COLO 205 colon; 1.24 µM with HOP-92 NSCLC. Further, the GI50 in the test on SW-620 colon was 1.49 µM; with MDA-MB-231 breast, 1.7 µM. Besides, the TGI in the test on HCT-116 colon is 3.28 µM; in the test with SF-295 CNS, 3.37 µM; in the test on PC-3 prostate it was 3.28 µM; in the test on UO-31 renal, 2.32 µM; in the test with COLO 205 colon, 4.72 µM; in the test on HOP-92 NSCLC it was 2.73 µM. The TGI is 3.09 µM in the test with SW-620 colon and 3.32 µM with MDA-MB-231 breast.
For `C1CCC([PH+](C2CCCCC2)C2CCCCC2[PH+](C2CCCCC2)C2CCCCC2)CC1.O=C(C1[CH-]CCCC1)C1CCCC[N-]1.[Au]` (stereo unspecified), the GI50 was 0.262 µM in the test with SF-295 CNS; 0.249 µM in the test with HL-60(TB) leukemia; 0.218 µM with PC-3 prostate; 1.45 µM in the test with UO-31 renal; 0.22 µM with HOP-92 NSCLC; 0.223 µM in the test on MDA-MB-231 breast. For the same molecule, the GI50 in the test with K-562 leukemia is 0.194 µM. Further, the TGI is 1.09 µM with SF-295 CNS; 0.731 µM in the test with HL-60(TB) leukemia; 3.8 µM in the test on PC-3 prostate; 2.76 µM with UO-31 renal; 0.89 µM with HOP-92 NSCLC; 0.713 µM in the test with MDA-MB-231 breast. In addition, the TGI with K-562 leukemia is over 100 µM.
As for `CC1=C(O)C(=O)C=C2C1=CC=C1[C@@]2(C)CC[C@@]2(C)[C@@H]3C[C@](C)(C(=O)O)CC[C@]3(C)CC[C@]12C`, the TGI with HCT-116 colon came to 0.0637 µM; in the test with SF-295 CNS it was 0.54 µM; with HL-60(TB) leukemia, 0.0585 µM; with PC-3 prostate, 0.185 µM; in the test on UO-31 renal, 0.151 µM; in the test with COLO 205 colon, 0.041 µM. Also, the TGI in the test on HOP-92 NSCLC stood at 0.0777 µM; with MDA-MB-231 breast, 0.0664 µM; in the test on K-562 leukemia it was 0.0617 µM.
Take `O=C(/C=C\c1ccc(NCc2ccc(C(=O)O)cc2)cc1)CCl`: the GI50 in the test on HCT-116 colon was 2.5 µM; in the test on SF-295 CNS, 17.5 µM; in the test with HL-60(TB) leukemia it was 14.8 µM; in the test on PC-3 prostate it was 14.2 µM; in the test on UO-31 renal, 14.6 µM; in the test with COLO 205 colon it was 14.2 µM. Moreover, the GI50 is 3.14 µM in the test on SW-620 colon, 12.7 µM in the test with MDA-MB-231 breast and 3.36 µM in the test on K-562 leukemia. For the same molecule, the TGI in the test on HCT-116 colon stood at 10.3 µM; with SF-295 CNS it was 34.3 µM; in the test with HL-60(TB) leukemia, 36.7 µM; with PC-3 prostate it was 28.9 µM; in the test with UO-31 renal, 29.2 µM; with COLO 205 colon, 29.4 µM. For the same molecule, the TGI in the test on SW-620 colon was found to be 11.6 µM; in the test on MDA-MB-231 breast, 27 µM; with K-562 leukemia, 14 µM.
As for `Cc1ccc(-c2nc3ccc(Cl)cc3c(=O)n2N2C(=O)CSC2c2ccccc2Cl)cc1` (stereo unspecified), the GI50 in the test with HCT-116 colon was 5.51 µM; in the test with SF-295 CNS, 4.73 µM; in the test with PC-3 prostate, 83 µM; in the test on UO-31 renal it was 3.66 µM; with COLO 205 colon it was 9 µM; in the test on HOP-92 NSCLC it was 6.74 µM. Also, the values for the GI50 in the test with SW-620 colon, in the test on MDA-MB-231 breast and with K-562 leukemia were over 100 µM, 4.21 µM and over 100 µM, respectively. Besides, the TGI with HCT-116 colon, with SF-295 CNS, in the test on PC-3 prostate, in the test on UO-31 renal, in the test on COLO 205 colon and in the test with HOP-92 NSCLC was over 100 µM each time. The TGI with SW-620 colon, in the test on MDA-MB-231 breast and in the test on K-562 leukemia was over 100 µM throughout.
Regarding `COc1cc(/C=C/c2ccc(OC)c(OC)c2)cc(OC)c1`, the TGI was over 100 µM with HCT-116 colon; 68.9 µM with SF-295 CNS; over 100 µM with PC-3 prostate; 83.1 µM in the test on UO-31 renal; 39.7 µM with COLO 205 colon; over 100 µM in the test on HOP-92 NSCLC. Also, the TGI with SW-620 colon is over 100 µM; with MDA-MB-231 breast it was 52 µM; in the test on K-562 leukemia, over 100 µM.

For the origin of these results see PubChem BioAssay (NCI).
